This is an account of results in ChEMBL document CHEMBL1201862, “PubChem BioAssay data set” (2004).

Among the test systems are HCC 2998; SF-539; PC-3; HOP-62; OVCAR-3; UACC-257; NCI-H460; HOP-92; A498; NCI/ADR-RES; TK-10; HT-29; HL-60; UACC-62; SF-295; MDA-MB-231; KM12; SNB-19; SK-MEL-5; UO-31.
What all share (experiment): NCI-60 cell line screen, 48 h

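1) Cells in 96-well plates. 2) Compound, 48 h, 5 concentrations. 3) Linear interpolation between surrounding doses. 4) Unreached endpoint = highest concentration. GI50 = concentration required for 50% inhibition of growth.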 Activity calls are given as the source filed them. Rule as the data show it: active = GI50 up to about 1.1 µM and inactive = higher.

For the compound `CC(=O)NC1=C(C)C(=O)c2c(nc3n2CCC3OC(=O)c2ccccc2)C1=N` (stereo not given), the GI50 in the assay on HCC 2998 was 2.06 µM (inactive); in the assay with SF-539 it was 1.25 µM (inactive); in the assay on PC-3 it was 1.32 µM (inactive); in the assay on HOP-62, 3.09 µM (inactive); in the assay on OVCAR-3, 0.552 µM (active); in the assay on UACC-257 it was 1.24 µM (inactive). For the same compound, the GI50 in the assay on NCI-H460 is 1.99 µM (inactive); with HOP-92, 2.15 µM (inactive); with A498, 1.96 µM (inactive); in the assay with NCI/ADR-RES, 2.93 µM (inactive); with TK-10, 3.5 µM (inactive); with HT-29, 0.973 µM (active). In addition, the GI50 in the assay on HL-60 was 1.21 µM (inactive); with UACC-62 it was 0.314 µM (active); with SF-295, 2.86 µM (inactive); in the assay with MDA-MB-231 it was 2.07 µM (inactive); in the assay on KM12, 4.55 µM (inactive); with SNB-19, 3.48 µM (inactive). The GI50 in the assay on SK-MEL-5 was 1.42 µM (inactive); in the assay with UO-31, 2.04 µM (inactive).
`CC(=O)Oc1ccc(C(c2ccc(OC(C)=O)cc2)c2ccccn2)cc1` [BISACODYL]: the GI50 is 2.9 µM (inactive) in the assay on HCC 2998; > 91.2 µM (inactive) with SF-539; 26.5 µM (inactive) in the assay with PC-3; > 92.7 µM (inactive) in the assay on HOP-62; 0.219 µM (active) in the assay on OVCAR-3; > 87.3 µM (inactive) in the assay on UACC-257. Besides, the GI50 in the assay with NCI-H460 is 99.1 µM (inactive); in the assay on HOP-92 it was 36.8 µM (inactive); in the assay on A498 it was 59 µM (inactive); with NCI/ADR-RES it was 1.32 µM (inactive); in the assay on TK-10, 81.3 µM (inactive); with HT-29, > 93.5 µM (inactive). The GI50 in the assay on HL-60 was 36.2 µM (inactive); with UACC-62, 47.5 µM (inactive); with SF-295, 64.3 µM (inactive); in the assay with MDA-MB-231, 54.7 µM (inactive); in the assay on KM12, 70.3 µM (inactive); in the assay with SNB-19, > 100 µM (inactive). The figures for the GI50 in the assay on SK-MEL-5 and in the assay on UO-31 were 68.4 µM (inactive) and 69.7 µM (inactive), respectively.
